The test concerns MEF A1-2A-BIM cells, caspase 3/7 luminescence, 3 h. Description: caspase activation in A1-2A-BIM MEF cells, dose response, A1 inhibitor project, cell-based, luminescence, retest (AID 2765).

The values that follow come from PubChem BioAssay AID2765 (Broad Institute, 2010).

The source made the active and inactive calls.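 Rule for the calls: active = half-maximal concentration for the rise in caspase light signal at or below ten times the top tested dose; inconclusive = flat fit between 30% and 70% activity, or unreliable curve fit; inactive = the rest.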

The EC50 is the concentration at which the effect is half-maximal. Regarding `COc1cc2c(c(OC)c1OC)-c1ccc(O)c(=O)cc1C(NC(C)=O)CC2` (stereo not drawn), the EC50 was > 35 µM (inactive).

`COc1ccccc1NC(=O)c1ccc(S(=O)(=O)N2CCCC2)cc1`: the EC50 was > 35 µM (inactive).

On to `COc1ccc(CCNC(=O)CSc2nc(-c3ccc(OC)c(OC)c3)ccc2C#N)cc1`, for which the EC50 is > 35 µM (inactive).

With `CCOC(=O)C(C(=O)OCC)C(C(=O)OCC)N1CCOCC1` (stereo not drawn), the EC50 was > 35 µM (inactive).

`COc1ccc(C(CNC(=O)c2cc(S(=O)(=O)NCc3ccco3)ccc2C)N(C)C)cc1` (stereo not drawn): the EC50 was > 35 µM (inactive).

Take `O=C(N/N=C\c1ccc(CN(Cc2ccc(Cl)cc2)S(=O)(=O)c2ccccc2)o1)C(=O)Nc1ccc(F)cc1`: the EC50 is > 35 µM (inactive).

Consider `COc1ccccc1-c1cn[nH]c1-c1ccc(OCc2ccccc2)cc1O`, for which the EC50 was > 35 µM (inactive).

For the compound `CCn1c(SCC(=O)Nc2ccc(C(C)=O)cc2)nc2c([nH]c3ccccc32)c1=O`, the EC50 was 13 µM.

As for `O=C(NCCN1CCOCC1)c1cc(Cl)ccc1Cl`, the EC50 is > 35 µM (inactive).

Take `CC(NC(=O)c1cc(F)c(F)c(F)c1F)c1ccc(-n2ccnc2)cc1` (stereo not drawn): the EC50 was > 35 µM (inactive).

`O=C(NC[C@H]1CCCO1)c1cccc2c1C(=O)c1ccc(-c3ccc(F)cc3OCc3ccccc3)cc1S2(=O)=O`: the EC50 is > 35 µM (inactive).

`O=C(NC1CCCc2ccccc21)c1ccccc1OC(F)F` (stereo not drawn): the EC50 was > 35 µM (inactive).

Regarding `O=C(NCc1ccc(/C=N\NC(=O)C(=O)Nc2ccccc2Br)o1)C(=O)Nc1ccccc1`, the EC50 was > 35 µM (inactive).

Take `CCc1ccc(C2C3=C(CC(C)(C)CC3=O)Nc3c2c(=O)[nH]c2nc(C)nn32)cc1` (stereo not drawn): the EC50 is > 35 µM (inactive).

Turning to `COc1ccc(C2(C(=O)NCCCN(C)C)CCOCC2)cc1`, the EC50 was > 35 µM (inactive).

`O=C(CN1CCN(Cc2ccccc2)CC1)Nc1ccc(Br)cc1`: the EC50 is > 35 µM (inactive).

In the case of `CCOc1ccc(N2C(=O)CN=C2Nc2ccccc2F)cc1`, the EC50 was > 35 µM (inactive).

`CCOC(=O)c1c(C)nc2sc(C(=O)Nc3ccc(C(C)=O)cc3)c(N)c2c1-c1ccc(OC)cc1`: the EC50 was > 35 µM (inactive).

Regarding `CC(C)C[C@H](NC(=O)N1CCn2c1nc1ccccc12)C(=O)NCc1ccccc1`, the EC50 was > 35 µM (inactive).

`Cc1ccc(N2CCN(C(=S)Nc3ccccc3C)CC2)cc1`: the EC50 is > 35 µM (inactive).

On to `O=C(COC(=O)c1ccc(CN2CCCC2=O)cc1)Nc1ccc(F)cc1`, for which the EC50 is > 35 µM (inactive).

Regarding `COc1ccccc1NC(=O)Nc1c(C)n(C)n(-c2ccccc2)c1=O`, the EC50 was > 35 µM (inactive).

In the case of `CC1=CC(=O)C(C(C)C)=C/C1=N/OS(=O)(=O)c1ccccc1`, the EC50 is 9.28 µM.

Turning to `Cc1ccc(NC(=O)c2ccc(N/N=C/c3cccc(O)c3)c([N+](=O)[O-])c2)cc1`, the EC50 is 21.5 µM.

On to `COc1cc2c(cc1OC)C(c1ccccc1Br)NC(=O)C2` (stereo not drawn), for which the EC50 is > 35 µM (inactive).

In the case of `CCOC(=O)c1oc2ccccc2c1NC(=O)CN1CCN(C)CC1`, the EC50 was > 35 µM (inactive).

Regarding `CCN(CC)CCCN=C(C)c1c(O)n(-c2ccc(C)cc2)c(=O)[nH]c1=O`, the EC50 is > 35 µM (inactive).

`Cc1ccc(NC(=S)NC(NC(=O)Cc2cccc3ccccc23)C(Cl)(Cl)Cl)cc1` (stereo not drawn): the EC50 was 20 µM.

In the case of `COc1cc2cnc(-c3ccccc3)c(-c3cccc(C(F)(F)F)c3)c2cc1OC`, the EC50 is > 35 µM (inactive).

Regarding `O=C1/C(=C\c2c(NCCOCCO)nc3ccccn3c2=O)SC(=S)N1Cc1ccco1`, the EC50 is > 35 µM (inactive).

Take `CCc1cccc(N(CC(=O)NCc2ccc(F)cc2)C(=O)c2csnn2)c1`: the EC50 is > 35 µM (inactive).

Take `COc1ccc2[nH]c(=O)c(-c3nnn(-c4ccccc4)n3)cc2c1`: the EC50 was > 35 µM (inactive).

In the case of `Nc1ccccc1SC(C[N+](=O)[O-])c1ccccc1` (stereo not drawn), the EC50 was > 35 µM (inactive).

On to `CCC(=O)c1ccc(N2CCN(C(=O)Cc3ccccc3)CC2)c(F)c1`, for which the EC50 is > 35 µM (inactive).

With `Cc1nnc(SCC(=O)NN2C(=O)NC3(CCCCC3)C2=O)s1`, the EC50 is > 35 µM (inactive).

Consider `Cc1ccc(C(=O)N/C(=C\c2sccc2C)C(=O)NCCCN2CCOCC2)cc1`, for which the EC50 is > 35 µM (inactive).

In the case of `O=C(COC(=O)/C=C/c1cccc(Cl)c1Cl)Nc1ccc2[nH]c(=O)[nH]c2c1`, the EC50 is > 35 µM (inactive).

With `CCOC(=O)c1c(NC(=O)C2C3C=CC(C3)C2C(=O)O)sc2c1CCCC2` (stereo not drawn), the EC50 is > 35 µM (inactive).

For the compound `COc1ccc(N2CC(C(=O)N[C@H](C(=O)NC(C)c3ccccc3)C(C)C)CC2=O)cc1` (stereo partly drawn), the EC50 was > 35 µM (inactive).

For `C/C(=N\NC(=O)CCC(=O)NCc1ccccc1)c1ccco1`, the EC50 is > 35 µM (inactive).

On to `Cc1noc(C)c1COc1ccc(C(=O)OC(C)C(=O)Nc2ccc(N3CCOCC3)cc2)cc1` (stereo not drawn), for which the EC50 is > 35 µM (inactive).

For `C#CCn1ccc(O)c(Cc2ccccc2)c1=O`, the EC50 is > 35 µM (inactive).

For `CC(C)Oc1ccccc1C(=O)NC(CO)C(=O)O` (stereo not drawn), the EC50 was > 35 µM (inactive).

For the compound `O=C(CSc1cccc[n+]1[O-])NC1CCCCC1`, the EC50 is > 35 µM (inactive).

Turning to `COC(=O)c1ccc2c(c1)C(C)(C)C(/C=C/c1ccccc1O)=[N+]2C`, the EC50 is 12.6 µM.

On to `Cc1ccc(S(=O)(=O)n2ccc3c(OCCOCCNCc4ccc(F)cc4)cccc32)cc1`, for which the EC50 is > 35 µM (inactive).

As to `Cc1ccc(-c2nc(NC(=O)c3nn(C)cc3[N+](=O)[O-])sc2C)cc1C`, the EC50 is 6.26 µM.

As to `O=C(/C=C/c1ccc(Cl)c(Cl)c1)NC1=NCCS1`, the EC50 is > 35 µM (inactive).

As to `Cc1ccc(CSc2ncnc3c2cnn3-c2ccccc2)cc1`, the EC50 is > 35 µM (inactive).

For the compound `CCOCCOC(=O)c1[nH]c2c(c1C)C(=O)CC(c1cccs1)C2` (stereo not drawn), the EC50 was > 35 µM (inactive).

On to `CCOc1cc(/C=N/N=C(\N)c2nonc2N)cc(Br)c1OCc1cccc2ccccc12`, for which the EC50 is 28 µM.

`Cc1ccc(NC(=O)CSc2nc3ccc(Nc4nc(N5CCOCC5)nc(N5CCOCC5)n4)cc3s2)cc1`: the EC50 was 14.9 µM.

In the case of `Cc1c(Cl)cccc1NC(=O)CN1CCN(CCN=CC2=C(O)CC(c3ccccc3)CC2=O)CC1` (stereo not drawn), the EC50 is > 35 µM (inactive).

Regarding `CC1COc2ccccc2N1C(=O)c1ccc(Cl)cc1` (stereo not drawn), the EC50 is > 35 µM (inactive).

For the compound `O=C(NC(Cc1ccccc1)C(=O)N1CCCCCC1)c1ccccc1` (stereo not drawn), the EC50 was > 35 µM (inactive).

Turning to `Cc1cccc(NC(=O)CSc2nnc(CNC(=O)c3ccc(S(=O)(=O)N(C)C)cc3)n2-c2ccc(F)cc2)c1`, the EC50 was > 35 µM (inactive).

On to `C=C1C(=O)O[C@H]2C[C@@H](C)[C@@H]3C=CC(=O)[C@@]3(C)C[C@H]12`, for which the EC50 was > 35 µM (inactive).

For `COc1ccccc1CNC(=O)COc1ccc([N+](=O)[O-])cc1`, the EC50 was > 35 µM (inactive).

Take `O=S1(=O)C=C(Sc2nc3cc(Cl)ccc3o2)c2ccccc21`: the EC50 is > 35 µM (inactive).

For `Cc1ccc(C(=O)Nc2ccc(N3CCOCC3)nc2N2CCOCC2)cc1`, the EC50 was > 35 µM (inactive).

As for `CCOc1cc2[nH]c(=S)n(CCCOC)c(=O)c2cc1OCC`, the EC50 was > 35 µM (inactive).

`COc1ccc2c(c1)[nH]c1c(=O)n(/N=C/C3C(C)C=C(C)CC3C)c(=O)[nH]c12` (stereo not drawn): the EC50 was > 35 µM (inactive).

Turning to `CC1(C)OC(=O)C(=Cc2ccc(-c3ccc(S(N)(=O)=O)cc3)o2)C(=O)O1`, the EC50 was > 35 µM (inactive).

As for `CCc1nc(N=Nc2c(O)[nH]c3ccccc23)c2c3c(sc2n1)CCC3`, the EC50 is 20.8 µM.

For the compound `Cc1nc(NN)c2c3c(sc2n1)COC(C)(C)C3`, the EC50 is > 35 µM (inactive).

As for `Cc1ccc(S(=O)(=O)N(C)Cc2ccc(C(=O)N/N=C/c3ccc(OC(F)F)cc3)cc2)cc1`, the EC50 is > 35 µM (inactive).

Regarding `CCN(CC)C(=S)SCC(=O)Nc1ccc(F)cc1`, the EC50 was > 35 µM (inactive).

With `Cc1cc(Sc2ncnc(N)c2[N+](=O)[O-])ncn1`, the EC50 is > 35 µM (inactive).

`O=C(/C=C/N1CCN(Cc2ccccc2)CC1)C(F)(F)F`: the EC50 was > 35 µM (inactive).

For the compound `N#Cc1ccc(S(=O)(=O)N2CCC(N3CCCCC3)CC2)cc1`, the EC50 was > 35 µM (inactive).

For `COc1ccc(OC)c2sc(N(CCCN(C)C)C(=O)c3ccc(S(=O)(=O)N4CCc5ccccc5C4)cc3)nc12`, the EC50 was > 35 µM (inactive).

For the compound `CCOC(=O)c1cc(CC)sc1NC(=O)C1CC(=O)NN1Cc1ccccc1` (stereo not drawn), the EC50 was > 35 µM (inactive).

For the compound `NC(=O)CCSC(=S)N1CCOCC1`, the EC50 was > 35 µM (inactive).

In the case of `CCOC(=O)C1=C(C)N(C)C(=O)C1CC(=O)O` (stereo not drawn), the EC50 is > 35 µM (inactive).

As for `CC(=O)OC(C)(C)/C=C/C(=O)[C@](C)(O)C1[C@H](O)C[C@@]2(C)C3CC=C4C(C[C@H](O)C(=O)C4(C)C)[C@]3(C)C(=O)C[C@]12C` (stereo partly drawn), the EC50 was > 35 µM (inactive).

`Cc1nn(Cc2c(Cl)cccc2Cl)c(C)c1NC(=O)c1cn(-c2ccccc2)nc1-c1ccccc1`: the EC50 is 15.1 µM.

On to `C[C@H](CO)N1C[C@H](C)[C@@H](CN(C)CC2CCCCC2)Oc2c(NS(=O)(=O)c3cccs3)cccc2C1=O`, for which the EC50 was > 35 µM (inactive).

`O=C1N(S(=O)(=O)c2ccccc2F)C(=O)C2(CCCC2)N1S(=O)(=O)c1ccccc1F`: the EC50 was > 35 µM (inactive).

With `CC(Sc1nc(-c2ccccc2)cc(C(F)(F)F)n1)C(=O)N1CCCCC1` (stereo not drawn), the EC50 was > 35 µM (inactive).

For the compound `CC(C)(C)NC(=O)NC(=O)COC(=O)CNS(=O)(=O)/C=C/c1ccccc1`, the EC50 is > 35 µM (inactive).

For `C=C1C(O)[C@@H]2O[C@]3(CC[C@H](/C=C/C(C)[C@@H]4CC(C)=CC5(O[C@H](C[C@@](C)(O)CO)CCC5O)O4)O3)CC[C@H]2O[C@@H]1C(O)CC(C)[C@H]1OC2(CCCCO2)CCC1C` (stereo partly drawn), the EC50 is > 35 µM (inactive).

With `COc1ccc(CCNC(=O)C2CCCN2C(=O)Nc2ccc(Cl)cc2)cc1OC` (stereo not drawn), the EC50 is > 35 µM (inactive).

On to `Cc1ccc(C(=O)Nc2nnc(C3=COCCO3)o2)cc1C`, for which the EC50 is > 35 µM (inactive).
